Drawing on patent US20260325533A1, “CDK INHIBITOR COMPOUNDS” (ALEKSIA THERAPEUTICS, INC., priority 2023, published 2026), this text covers IC50 for 17 molecules.

SMILES strings stand for the structures. Where two headings read alike, the source gives them in different places. Some results are limits rather than exact numbers.

What all share (format): biochemical
One test has as its target CDK4/CCND3 (Homo sapiens, UniProt P11802). Kind of test: CDK4 homogeneous time-resolved fluorescence (HTRF) kinase assay. The conditions noted are these: CDK4/CCND. In short, it runs like this: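 Steps: compound plus 1.5 nM CDK4/CCND3, 20 min, 23 °C; add 1 mM ATP and 50 nM ULight-4E-BP1 (Thr37/46) peptide, 60 min; stop with 10 mM EDTA; add 2 nM Eu anti-phospho antibody, 60 min; read 665 nm. IC50 from 11-point half-log series starting 10 μM.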

Another test deals with CDK1/CCNB1 (Homo sapiens, UniProt P06493). Kind of test: CDK1 homogeneous time-resolved fluorescence (HTRF) kinase assay. Particulars: CDK1/CCNB. The method in brief: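 CDK1/CCNB1 0.5 nM + cpd, 20 min 23 °C; add 1 mM ATP, 50 nM ULight-4E-BP1 peptide, 60 min 23 °C; stop 10 mM EDTA; 2 nM Eu-Ab, 60 min; HTRF 665 nm. 11-pt half-log, top 10 μM typical; IC50.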
Another test has as its target CDK2/CCNE1 (Homo sapiens, UniProt P24941). Description: CDK2 homogeneous time-resolved fluorescence (HTRF) kinase assay. The conditions noted are these: CDK2/CCNE. In short, it runs like this:
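Compounds were titrated 11-point, half-log from typically 10 μM against 3 nM CDK2/cyclin E1 at 1 mM ATP, with a 20 min enzyme preincubation. Phosphorylation of 50 nM ULight-4E-BP1 peptide over 60 min at 23 °C was detected by europium anti-phospho antibody TR-FRET.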

The target of another test is CDK6/CCND1 (Homo sapiens, UniProt Q00534). Description: CDK6 homogeneous time-resolved fluorescence (HTRF) kinase assay. Particulars: CDK6/CCND. In short, it runs like this:
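Enzyme pre-incubated 20 min at 23 °C with compound, then reacted 60 min at 23 °C with 1 mM ATP and 50 nM ULight-4E-BP1 (Thr37/46) peptide; 1 nM enzyme, 1% DMSO. EDTA-stopped, Eu-anti-phospho antibody TR-FRET read (665 nm or 665/615 ratio); 11-point half-log titration from 10 μM gave IC50.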

[1] abbreviates: x = IC50 25-250 nM, read-out: CDK4/CCND IC50 (25-250 nM).
The mark [2] stands for this setting: x = IC50 25-250 nM, read-out: CDK1/CCNB IC50 (25-250 nM).
Setting [3] is: x = IC50 <25 nM, read-out: CDK2/CCNE IC50 (<25 nM).
The mark [4] stands for this setting: x = IC50 >250 nM, read-out: CDK6/CCND IC50 (>250 nM column).
[5] abbreviates: x = IC50 25-250 nM, read-out: CDK6/CCND IC50 (25-250 nM).
Where [6] appears, read: x = IC50 >250 nM, read-out: CDK4/CCND IC50 (>250 nM column).
Where [7] appears, read: x = IC50 >250 nM, read-out: CDK1/CCNB IC50 (>250 nM column).
Setting [8] is: x = IC50 25-250 nM, read-out: CDK2/CCNE IC50 (25-250 nM).
The mark [9] stands for this setting: x = IC50 <25 nM, read-out: CDK4/CCND IC50 (<25 nM).

CDK1/CCNB1, sequence (P06493 whole entry): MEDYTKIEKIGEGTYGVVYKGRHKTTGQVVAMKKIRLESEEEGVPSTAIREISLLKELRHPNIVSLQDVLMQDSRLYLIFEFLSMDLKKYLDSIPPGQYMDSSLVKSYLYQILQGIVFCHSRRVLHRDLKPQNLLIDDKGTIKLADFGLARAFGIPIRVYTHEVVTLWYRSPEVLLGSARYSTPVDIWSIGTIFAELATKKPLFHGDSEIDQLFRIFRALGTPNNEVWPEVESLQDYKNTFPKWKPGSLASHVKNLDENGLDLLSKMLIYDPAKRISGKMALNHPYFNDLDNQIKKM
CDK1/CCNB1, sequence (P14635 whole entry partner): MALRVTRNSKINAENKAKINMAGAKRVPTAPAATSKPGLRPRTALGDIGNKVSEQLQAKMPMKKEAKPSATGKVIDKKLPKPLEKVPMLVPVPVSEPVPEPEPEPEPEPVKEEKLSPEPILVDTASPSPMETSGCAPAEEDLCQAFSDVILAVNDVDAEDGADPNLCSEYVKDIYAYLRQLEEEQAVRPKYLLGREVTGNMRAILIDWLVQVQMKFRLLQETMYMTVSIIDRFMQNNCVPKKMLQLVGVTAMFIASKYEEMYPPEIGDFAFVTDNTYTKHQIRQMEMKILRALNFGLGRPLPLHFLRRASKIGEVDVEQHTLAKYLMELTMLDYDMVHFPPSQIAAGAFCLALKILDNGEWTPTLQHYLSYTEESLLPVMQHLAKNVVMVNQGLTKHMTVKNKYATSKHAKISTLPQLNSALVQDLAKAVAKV
CDK6/CCND1, sequence (Q00534 whole entry): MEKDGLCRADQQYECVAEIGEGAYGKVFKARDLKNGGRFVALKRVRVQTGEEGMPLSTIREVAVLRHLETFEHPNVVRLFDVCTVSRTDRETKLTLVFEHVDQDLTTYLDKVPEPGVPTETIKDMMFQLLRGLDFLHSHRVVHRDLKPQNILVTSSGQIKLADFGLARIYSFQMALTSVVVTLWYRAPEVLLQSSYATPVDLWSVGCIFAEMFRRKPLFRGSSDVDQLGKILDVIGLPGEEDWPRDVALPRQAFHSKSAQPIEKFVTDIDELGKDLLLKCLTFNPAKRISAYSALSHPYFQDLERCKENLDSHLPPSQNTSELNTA
CDK6/CCND1, sequence (P24385 whole entry partner): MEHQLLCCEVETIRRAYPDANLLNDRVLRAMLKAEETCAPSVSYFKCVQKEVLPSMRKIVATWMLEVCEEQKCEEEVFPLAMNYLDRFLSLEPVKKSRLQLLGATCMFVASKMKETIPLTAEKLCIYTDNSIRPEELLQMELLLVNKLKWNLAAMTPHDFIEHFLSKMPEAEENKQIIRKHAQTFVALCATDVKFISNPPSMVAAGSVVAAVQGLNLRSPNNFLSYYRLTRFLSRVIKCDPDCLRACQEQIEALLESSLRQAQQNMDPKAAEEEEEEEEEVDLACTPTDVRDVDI
CDK4/CCND3, sequence (P11802 whole entry): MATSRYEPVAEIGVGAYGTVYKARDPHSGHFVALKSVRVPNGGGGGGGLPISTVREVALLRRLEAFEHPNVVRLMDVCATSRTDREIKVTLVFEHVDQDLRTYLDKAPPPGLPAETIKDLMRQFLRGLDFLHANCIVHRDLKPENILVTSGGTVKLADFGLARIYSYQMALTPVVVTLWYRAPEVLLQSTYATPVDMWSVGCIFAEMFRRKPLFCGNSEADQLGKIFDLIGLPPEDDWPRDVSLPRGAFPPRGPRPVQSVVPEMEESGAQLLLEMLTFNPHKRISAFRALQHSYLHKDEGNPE
CDK4/CCND3, sequence (P30281 whole entry partner): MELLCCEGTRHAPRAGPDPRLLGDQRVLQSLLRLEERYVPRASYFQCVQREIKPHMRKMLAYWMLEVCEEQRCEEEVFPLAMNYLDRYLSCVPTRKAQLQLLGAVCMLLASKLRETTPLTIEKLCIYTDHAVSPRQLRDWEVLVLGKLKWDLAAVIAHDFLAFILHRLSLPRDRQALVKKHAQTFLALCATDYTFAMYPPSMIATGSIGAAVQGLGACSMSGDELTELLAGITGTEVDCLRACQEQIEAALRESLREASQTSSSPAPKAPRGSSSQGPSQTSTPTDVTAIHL

With `CS(=N)(=O)c1ccc(Nc2cc3c(C#Cc4ccc5c(c4)NC(=O)C54CCC4)nccc3cn2)cc1` (single isomer, unassigned) [Ex 368, 6'-((7-((4-(S-methylsulfonimidoyl)phenyl)amino)-2,6-naphthyridin-1-yl)ethynyl)spiro[cyclobutane-1,3'-indolin]-2'-one], the IC50 is 25 to 250 nM at CDK4/CCND3 (setting [1]), 25 to 250 nM at CDK1/CCNB1 (setting [2]), < 25 nM at CDK2/CCNE1 (setting [3]) and > 250 nM at CDK6/CCND1 (setting [4]).

`CC(C)S(=N)(=O)c1ccc(Nc2cc3c(C#Cc4ccc5c(c4)NC(=O)C54CCC4)nccc3cn2)cc1` (single isomer, unassigned) [Ex 383, 6'-((7-((4-(propan-2-ylsulfonimidoyl)phenyl)amino)-2,6-naphthyridin-1-yl)ethynyl)spiro[cyclobutane-1,3'-indolin]-2'-one]: the IC50 at CDK4/CCND3 (setting [1]) was 25 to 250 nM; at CDK1/CCNB1 (setting [2]), 25 to 250 nM; on CDK2/CCNE1 (setting [3]) it was < 25 nM; at CDK6/CCND1 (setting [5]), 25 to 250 nM.

Consider `CC(C)S(=N)(=O)c1ccc(Nc2cc3c(C#Cc4cccnc4N)nccc3cn2)cc1` (single isomer, unassigned) [Ex 402, (4-((5-((2-aminopyridin-3-yl)ethynyl)-2,6-naphthyridin-3-yl)amino)phenyl)(imino)(isopropyl)-l6-sulfanone], for which the IC50 on CDK4/CCND3 (setting [6]) was > 250 nM; on CDK1/CCNB1 (setting [7]), > 250 nM; on CDK2/CCNE1 (setting [8]), 25 to 250 nM; at CDK6/CCND1 (setting [4]) it was > 250 nM.

With `CCC1(CC)C(=O)Nc2cc(C#Cc3nccc4cnc(Nc5ccc(S(=N)(=O)C6CC6)cc5)cc34)ccc21` (single isomer, unassigned) [Ex 410, 6-((7-((4-(cyclopropanesulfonimidoyl)phenyl)amino)-2,6-naphthyridin-1-yl)ethynyl)-3,3-diethylindolin-2-one], the IC50 at CDK4/CCND3 (setting [1]) was 25 to 250 nM; on CDK1/CCNB1 (setting [2]), 25 to 250 nM; at CDK2/CCNE1 (setting [3]), < 25 nM; on CDK6/CCND1 (setting [4]), > 250 nM.

`CCC1(CC)C(=O)Nc2cc(C#Cc3nccc4cnc(Nc5ccc(S(=N)(=O)CC)cc5)cc34)ccc21` (single isomer, unassigned) [Ex 411, 3,3-diethyl-6-((7-((4-(ethylsulfonimidoyl)phenyl)amino)-2,6-naphthyridin-1-yl)ethynyl)indolin-2-one]: the IC50 at CDK4/CCND3 (setting [6]) was > 250 nM; on CDK1/CCNB1 (setting [2]), 25 to 250 nM; at CDK2/CCNE1 (setting [3]) it was < 25 nM; on CDK6/CCND1 (setting [4]), > 250 nM.

Regarding `CCC1(CC)C(=O)Nc2cc(C#Cc3nccc4cnc(Nc5ccc(S(=N)(=O)C6CCC6)cc5)cc34)ccc21` (single isomer, unassigned) [Ex 412, 6-((7-((4-(cyclobutanesulfonimidoyl)phenyl)amino)-2,6-naphthyridin-1-yl)ethynyl)-3,3-diethylindolin-2-one], the IC50 was 25 to 250 nM on CDK4/CCND3 (setting [1]), > 250 nM at CDK1/CCNB1 (setting [7]), < 25 nM at CDK2/CCNE1 (setting [3]) and > 250 nM at CDK6/CCND1 (setting [4]).

In the case of `CCC1(CC)C(=O)Nc2cc(C#Cc3nccc4cnc(Nc5ccc(S(=N)(=O)C(C)C)cc5)cc34)ccc21` (single isomer, unassigned) [Ex 414, 3,3-diethyl-6-((7-((4-(propan-2-ylsulfonimidoyl)phenyl)amino)-2,6-naphthyridin-1-yl)ethynyl)indolin-2-one], the IC50 at CDK4/CCND3 (setting [6]) is > 250 nM; on CDK1/CCNB1 (setting [7]), > 250 nM; on CDK2/CCNE1 (setting [3]), < 25 nM; at CDK6/CCND1 (setting [4]) it was > 250 nM.

For `N=S(=O)(c1ccc(Nc2cc3c(C#Cc4cccnc4N)nccc3cn2)cc1)C1CC1` (single isomer, unassigned) [Ex 417, (4-((5-((2-aminopyridin-3-yl)ethynyl)-2,6-naphthyridin-3-yl)amino)phenyl)(cyclopropyl)(imino)-l6-sulfanone], the IC50 is > 250 nM at CDK4/CCND3 (setting [6]), > 250 nM on CDK1/CCNB1 (setting [7]), 25 to 250 nM at CDK2/CCNE1 (setting [8]) and > 250 nM at CDK6/CCND1 (setting [4]).

With `CCC1(CC)C(=O)Nc2cc(C#Cc3nccc4cnc(Nc5ccc(S(C)(=N)=O)cc5)cc34)ccc21` (single isomer, unassigned) [Ex 426, 3,3-diethyl-6-((7-((4-(S-methylsulfonimidoyl)phenyl)amino)-2,6-naphthyridin-1-yl)ethynyl)indolin-2-one], the IC50 on CDK4/CCND3 (setting [6]) is > 250 nM; on CDK1/CCNB1 (setting [2]) it was 25 to 250 nM; on CDK2/CCNE1 (setting [3]), < 25 nM; at CDK6/CCND1 (setting [4]) it was > 250 nM.

With `CC1(C)C(=O)Nc2cc(C#Cc3nccc4cnc(Nc5ccc(S(=N)(=O)C6CC6)cc5)cc34)ccc21` (single isomer, unassigned) [Ex 437, 6-((7-((4-(cyclopropanesulfonimidoyl)phenyl)amino)-2,6-naphthyridin-1-yl)ethynyl)-3,3-dimethylindolin-2-one], the IC50 at CDK4/CCND3 (setting [9]) was < 25 nM; on CDK1/CCNB1 (setting [2]) it was 25 to 250 nM; at CDK2/CCNE1 (setting [3]), < 25 nM; on CDK6/CCND1 (setting [5]), 25 to 250 nM.

For the molecule `CC1(C)C(=O)Nc2cc(C#Cc3nccc4cnc(Nc5ccc(S(C)(=N)=O)cc5)cc34)ccc21` (single isomer, unassigned) [Ex 451, 3,3-dimethyl-6-((7-((4-(S-methylsulfonimidoyl)phenyl)amino)-2,6-naphthyridin-1-yl)ethynyl)indolin-2-one], the IC50 is 25 to 250 nM on CDK4/CCND3 (setting [1]), 25 to 250 nM at CDK1/CCNB1 (setting [2]), < 25 nM on CDK2/CCNE1 (setting [3]) and > 250 nM at CDK6/CCND1 (setting [4]).

Regarding `CC(C)S(=N)(=O)c1ccc(Nc2cc3c(C#Cc4ccc5c(c4)NC(=O)C5(C)C)nccc3cn2)cc1` (single isomer, unassigned) [Ex 455, 3,3-dimethyl-6-((7-((4-(propan-2-ylsulfonimidoyl)phenyl)amino)-2,6-naphthyridin-1-yl)ethynyl)indolin-2-one], the IC50 is 25 to 250 nM on CDK4/CCND3 (setting [1]); < 25 nM on CDK4/CCND3 (setting [9]); 25 to 250 nM on CDK1/CCNB1 (setting [2]); < 25 nM at CDK2/CCNE1 (setting [3]); 25 to 250 nM on CDK6/CCND1 (setting [5]).

With `CCS(=N)(=O)c1ccc(Nc2cc3c(C#Cc4ccc5c(c4)NC(=O)C5(C)C)nccc3cn2)cc1` (single isomer, unassigned) [Ex 462, 6-((7-((4-(ethylsulfonimidoyl)phenyl)amino)-2,6-naphthyridin-1-yl)ethynyl)-3,3-dimethylindolin-2-one], the IC50 is 25 to 250 nM on CDK4/CCND3 (setting [1]), 25 to 250 nM on CDK1/CCNB1 (setting [2]), < 25 nM at CDK2/CCNE1 (setting [3]) and 25 to 250 nM at CDK6/CCND1 (setting [5]).

On to `CCS(=N)(=O)c1ccc(Nc2cc3c(C#Cc4cccnc4N)nccc3cn2)cc1` (single isomer, unassigned) [Ex 474, (4-((5-((2-aminopyridin-3-yl)ethynyl)-2,6-naphthyridin-3-yl)amino)phenyl)(ethyl)(imino)-l6-sulfanone], for which the IC50 is > 250 nM on CDK4/CCND3 (setting [6]), > 250 nM at CDK1/CCNB1 (setting [7]), 25 to 250 nM at CDK2/CCNE1 (setting [8]) and > 250 nM on CDK6/CCND1 (setting [4]).

For `CS(=N)(=O)c1ccc(Nc2cc3c(C#Cc4cccnc4N)nccc3cn2)cc1` (single isomer, unassigned) [Ex 480, (4-((5-((2-aminopyridin-3-yl)ethynyl)-2,6-naphthyridin-3-yl)amino)phenyl)(imino)(methyl)-l6-sulfanone], the IC50 is > 250 nM at CDK4/CCND3 (setting [6]), > 250 nM at CDK1/CCNB1 (setting [7]), 25 to 250 nM on CDK2/CCNE1 (setting [8]) and > 250 nM on CDK6/CCND1 (setting [4]).

As to `CC(O)CN1CCC(C#Cc2nccc3cnc(Nc4ccc(S(C)(=O)=O)cc4)cc23)CC1` (single isomer, unassigned) [Ex 607, 1-(4-((7-((4-(methylsulfonyl)phenyl)amino)-2,6-naphthyridin-1-yl)ethynyl)piperidin-1-yl)propan-2-ol], the IC50 was > 250 nM at CDK4/CCND3 (setting [6]), > 250 nM at CDK1/CCNB1 (setting [7]), < 25 nM on CDK2/CCNE1 (setting [3]) and 25 to 250 nM at CDK6/CCND1 (setting [5]).

In the case of `Cc1c(-c2nccc3cnc(Nc4ccc(S(=N)(N)=O)cc4)cc23)ccc2c1cnn2CC(O)(C(F)(F)F)C(F)(F)F` (single isomer, unassigned) [Ex 679, 4-((5-(4-methyl-1-(3,3,3-trifluoro-2-hydroxy-2-(trifluoromethyl)propyl)-1H-indazol-5-yl)-2,6-naphthyridin-3-yl)amino)benzenesulfonimidamide], the IC50 is 25 to 250 nM on CDK4/CCND3 (setting [1]), 25 to 250 nM on CDK1/CCNB1 (setting [2]), < 25 nM at CDK2/CCNE1 (setting [3]) and 25 to 250 nM at CDK6/CCND1 (setting [5]).
